Results published in publication PMC8063472, “Pharmacokinetics of five phthalides in volatile oil of Ligusticum sinense Oliv.cv. Chaxiong, and comparison study on physicochemistry and pharmacokinetics after being formulated into solid dispersion and inclusion compound” (BMC Complementary Medicine and Therapies, 2021).
Read-outs that look alike come from different tables or passages of the source.

Assays:
[1] = Pharmacokinetic study in rats (plasma LC-MS/MS) after iv or oral VOC, oral VOC-P188 or oral VOC-β-CD; assay type: in vivo, Sprague Dawley rats; details: for t1/2α / AUC(0-t) / MRT last / Tmax / half-life / Cmax: rat plasma, n = 6; for F2 (relative bioavailability) / bioavailability: rats; for AUC(0-t) / MRT last / Tmax / half-life / Cmax / bioavailability: male, Sprague-Dawley, rat, plasma; for MRT last: read-out: MRT0-t; for Tmax: read-out: Tmax; for half-life: read-out: t1/2β (converted)
Experimental: The intravenous injection solution was prepared by dissolving 0.15 g of VOC in 25 ml water containing 3 ml 10% Tween-80 as solubilizer. The oral solution was prepared by dissolving 0.35 g of VOC in 25 ml normal saline containing 3 ml 10% Tween-80 as solubilizer. The VOC-P188 solution was prepared by mixing VOC-P188 5 g in 25 ml water with magnetic stirring apparatus. The VOC-β-CD solution was prepared by mixing VOC-β-CD 3.5 g in 25 ml water with magnetic stirring apparatus.
Twenty-four male SD rats (220 ~ 250 g) were randomly divided into four groups, 6 in each group. After fasting for 12 h before administration, the rats in group 1 were given VOC by tail vein injection at a dose of 30 mg/Kg, the rats at second group were oral administration of VOC solution, the dosage was 120 mg/Kg based on the mass of VOC. The rats at groups 3 and 4 were given VOC-P188 and VOC-β-CD, respectively.
Blood samples (0.3 ml) were collected from the eyes at 0.08, 0.17, 0.33, 0.5, 1, 1.5, 2, 4, 6, 8, 12 and 24 h after administration, and they were immediately transferred into a heparinized Eppendorf (EP) tube. The blood samples were then centrifuged at 13,000 r/min for 10 min. The plasma samples were stored at − 80 °C for later analysis.
The thawed plasma sample (0.1 ml) was transferred to another EP tube and 20 μl of DL, 50 μl of 2% formic acid and 500 μl of methanol were added. The mixture was vortexed for 2 min, and centrifuged at 13000 r/min for 10 min. The supernatant was transferred into a clean EP tube, and evaporated to dryness under a stream of nitrogen at 40 °C. The residue was dissolved in 100 μl of methanol. The supernatant was injected into the HPLC system.
An HPLC system consisting of a solvent-delivery system LC-30 AD, an autosampler SIL-30 AC, a column oven CTO-30 AC, a solvent degasser DGU-20A3, and a controller CBM-20A from […] was used in the study. Separation was conducted using a Shim-pack GIST C18-AQ HP column (2.1 mm × 100 mm, 3 μm). The column oven was maintained at 35 °C. The mobile phase was 0.1% formic acid in water as mobile phase A and acetonitrile as mobile phase B. The linear gradient elution program was set according to preliminary tests: 45–60% B, 0–2 min; 60–65% B, 2–6 min; 65–95% B, 6–7 min; 95–45% B, 7–9 min and 45% B, 9–10 min, with the flow rate kept at 0.3 ml/min. The injection volume was set at 2 μl.
The MS analysis was performed on a 4500 QTRAP™ system from Applied Biosystems (AB Sciex) equipped with Turbo V sources and Turbo Ion Spray™ (TIS) interface. Electrospray ionization was performed in positive mode. Ion source: electrospray ion source (ESI source); detection method: multiple reaction monitoring (MRM); ion source temperature: 500 °C; desolvent gas temperature: 550 °C; desolvent gas flow rate: 800 l/h. The detection ion pair, retention time, declustering voltage and collision energy of each index component and internal standard were shown in Table 2.
The plasma SA, NBP, NOL, ZL and BP concentrations were evaluated using the equation from the standard curves that were run with each batch of samples. The plasma concentration-time data were analyzed with the Drug and Statistics 2.0 software package to determine the pharmacokinetic parameters. The observed Cmax value was obtained from the observed data and the observed AUC0 → t value was calculated using the trapezoidal rule. The absolute bioavailability of VOC and the relative bioavailability of VOC-P188 and VOC-β-CD were calculated, the formula for calculating absolute bioavailability (F1) and relative bioavailability (F2): F1=AUCpo×Div/AUCiv×Dpo×100% […]
Where AUC is the area under the temporal curve of blood drug concentration (μg/l*h), D is administration dosage (mg/kg); the subscripts iv and po are injection and oral administration, respectively; the subscript R is reference drug (VOC); the subscript T is solid dispersion or inclusion compound.

[2] = Stability test of VOC-P188 and VOC-β-CD (temperature, illumination); assay type: physicochemical
[3] = In vitro dissolution, paddle method, pH 5.8 phosphate buffer; assay type: physicochemical
Experimental: Dissolution studies were performed according to the USP XXI method 2 (paddle method) at 37 ± 0.5 °C at 50 rpm. 900 ml of dissolution medium were used as standard volume. Dissolution samples (1 mL) were withdrawn at the specified times of 15, 30, 45, 60, 90, 120 min from Dissolution cups, and 1 ml of dissolution medium was replenished in the same time. Samples were filtered through a 0.45 μm nylon disc filter and were measured absorbance at 230 nm by HPLC [11].

[4] = parameters: method as in PMID 18039808; details: cited from earlier work
[5] = VOC-P188 solid dispersion po vs VOC po
[6] = VOC-β-CD inclusion compound po vs VOC po
[7] = iv, 30 mg/kg, VOC iv (tail vein) 30 mg/kg
[8] = po, 120 mg/kg, VOC po 120 mg/kg
[9] = po, 120 mg/kg, VOC po vs VOC iv, read-out: F1 (absolute bioavailability)
[10] = po, VOC-P188 and VOC-β-CD po, read-out: bioavailability in the two preparations
[11] = po, VOC-P188 solid dispersion po
[12] = po, VOC-β-CD inclusion compound po

Row | Compound | t1/2α ([1]; VOC iv 30 mg/kg) | t1/2α ([1]; VOC po 120 mg/kg) | F2 (relative bioavailability) [1, 5] | t1/2α ([1]; VOC-P188 solid dispersion po) | F2 (relative bioavailability) [1, 6] | t1/2α ([1]; VOC-β-CD inclusion compound po) | AUC(0-t) ([1]; iv, 30 mg/kg, VOC iv 30 mg/kg) | MRT last ([1]; iv, 30 mg/kg, VOC iv 30 mg/kg) | Tmax ([1]; iv, 30 mg/kg, VOC iv 30 mg/kg) | half-life ([1]; iv, 30 mg/kg, VOC iv 30 mg/kg) | Cmax [1, 7] | AUC(0-t) [1, 8] | Cmax [1, 8] | MRT last [1, 8] | Tmax [1, 8] | half-life [1, 8] | bioavailability [1, 10] | AUC(0-t) [1, 11] | Cmax [1, 11] | MRT last [1, 11] | other results
1 | CCCC[C@@H]1OC(=O)C2=CCCC[C@H]21 [NOL, Neocnidilide] | 0.04 ± 0.04 h | 0.46 ± 0.67 h | 258.18% | 4.21 ± 4.29^* h | 218.01% | 3.21 ± 2.44 h | 505 ± 152 ng·h/mL | 47.4 ± 10.2 min | 4.98 min | 18 ± 6.6 min | 1380 ± 335 ng/mL | 442 ± 45.2 ng·h/mL | 223 ± 71.3 ng/mL | 205 ± 34.2 min | 10.8 ± 7.2 min | 186 ± 131 min | < 50% | 1140 ± 63.9 ng·h/mL | 244 ± 131 ng/mL | 457 ± 34.2 min | bioavailability [1, 9]: < 25%; Tmax [1, 11]: 25.2 ± 27 min; half-life [1, 11]: 530 ± 110 min; AUC(0-t) [1, 12]: 945 ± 85 ng·h/mL; Cmax [1, 12]: 134 ± 24.3 ng/mL; MRT last [1, 12]: 490 ± 33 min; Tmax [1, 12]: 40.2 ± 15.6 min; half-life [1, 12]: 586 ± 163 min
2 | CCCCC1OC(=O)C2=C1CCC=C2 (centres unmarked) [SA, senkyunolide A] | 0.09 ± 0.05 h | 1.31 ± 1.58 h | 185.82% | 1.50 ± 1.59 h | 138.69% | 2.34 ± 1.24 h | 1370 ± 315 ng·h/mL | 43.2 ± 4.8 min | 4.98 min | 46.8 ± 39.6 min | 3430 ± 557 ng/mL | 1260 ± 274 ng·h/mL | 631 ± 310 ng/mL | 251 ± 29.4 min | 11.4 ± 6 min | 227 ± 84 min | < 50% | 2360 ± 351 ng·h/mL | 701 ± 349 ng/mL | 387 ± 57.6 min | bioavailability [1, 9]: < 25%; Tmax [1, 11]: 12 ± 9.6 min; half-life [1, 11]: 434 ± 154 min; AUC(0-t) [1, 12]: 1830 ± 532 ng·h/mL; Cmax [1, 12]: 399 ± 68.3 ng/mL; MRT last [1, 12]: 373 ± 90.6 min; Tmax [1, 12]: 30 ± 15.6 min; half-life [1, 12]: 179 ± 34.2 min; content decreased by ([2]; in VOC-P188, 60 °C for 10 days): 15.8%; content decreased by ([2]; in VOC-β-CD, 60 °C for 10 days): 9.0%
3 | CCC/C=C1\OC(=O)C2=C1CCC=C2 [ZL, Z-ligustilide] | 0.04 ± 0.04 h | 0.82 ± 0.51 h | 163.35% | 4.40 ± 4.10^* h | 224.54% | 4.72 ± 1.92^* h | 1240 ± 435 ng·h/mL | 27 ± 6 min | 4.98 min | 33 ± 39.6 min | 4530 ± 1450 ng/mL | 504 ± 53.3 ng·h/mL | 214 ± 76 ng/mL | 236 ± 32.4 min | 13.2 ± 5.4 min | 329 ± 157 min | < 50% | 801 ± 199 ng·h/mL | 320 ± 286 ng/mL | 357 ± 29.4 min | Tmax [1, 11]: 29.4 ± 25.2 min; half-life [1, 11]: 535 ± 315 min; AUC(0-t) [1, 12]: 883 ± 211 ng·h/mL; Cmax [1, 12]: 145 ± 24.8 ng/mL; MRT last [1, 12]: 439 ± 19.8 min; Tmax [1, 12]: 24 ± 10.2 min; half-life [1, 12]: 358 ± 174 min; content decreased by ([2]; in VOC-P188, 60 °C for 10 days): 38.9%; content decreased by ([2]; in VOC-β-CD, 60 °C for 10 days): 20.3%; solubility in pH 5.8 PBS [3]: poor solubility; Oral bioavailability [4]: 2.6%
